# Results: publication PMC6582486, “Stapled EGFR peptide reduces inflammatory breast cancer and inhibits additional HER-driven models of cancer” (Journal of Translational Medicine, 2019)
# Where a SMILES comes first, the peptide text is derived from it. Bridges are numbered along the chain shown (N, C = ends). [ ]: non-standard residue; d: D form. R8 = C=CCCCCCC[C@@](C)(N)C(=O)O; S5 = C=CCCC[C@](C)(N)C(=O)O
# How the values were obtained:
# [1] = tested on: SUM149-generated tumors; experiment: Inflammatory breast cancer SUM149 mouse model; type: in vivo, SCID mice
# Protocol: 26 female SCID mice were injected with 0.1 mL of a cell solution containing 3.84 × 10^6 SUM149 cells resuspended in Trevigen and sterile saline at site L4. Mice were incubated for 35 days to allow tumor growth prior to injection of SAH5-EJ1, and randomized into 3 groups, N = 8 mice/group. Injections of 5 µg/g or 0.5 µg/g in 0.1 mL volumes of SAH5-EJ1 were administered via tail vein every 3 days for 31 days until the administration route changed to intraperitoneal injections through the conclusion of the study. Control injections of equal volumes of sterile water were also performed. All animals were maintained as outlined by University of Arizona Institutional Animal Care and Use Committee (IACUC) by the Experimental Mouse Shared Resource (EMSR).
# (§1) Fig. 4 SAH5-EJ1 effectively treats models of basal and inflammatory breast cancers while increasing survival. a Changes in tumor burden in breast cancer PDX mouse model TM01278 with various concentrations of intravenous SAH5-EJ1. Control represents water as a vehicle control. *p < 0.05 (Control vs 1 µg/g); **p < 0.01 (Control vs 1 µg/g and vs 10 µg/g). N = 6 for each condition. b Kaplan–Meier curve of breast PDX mouse model treated with control (blue) or either 1 or 10 µg/g SAH5-EJ1 (green and red, respectively) (red asterisks indicate time point at which mice could no longer receive injections due to site toxicity). Data shown represent mean. N = 6 for all groups. c Cell viability assay performed in SUM149 cells over 3 days comparing treatment with Sapitinib (blue) to SAH5-EJ1 (red) and SAH5-CP (grey). Solid lines represent 24 h; dashed lines represent 72 h. Data shown represent mean ± percent difference of assays performed in triplicate. d Kaplan–Meier curve of inflammatory breast cancer SUM149-injected mouse model treated with injected control (water) (blue) or either 0.5 or 5 µg/g SAH5-EJ1 (green and red, respectively). Data shown represent mean. N = 8 for all groups. e Changes in tumor burden in SUM149-generated tumors with various doses of SAH5-EJ1. Control represents water (blue). […]
# [2] = tested on: SUM149 inflammatory breast cancer cells; type: cell-based; settings: SUM149, 10 µM, 3 days
# Protocol: 1000–3000 cells were plated in 96-well plates (Falcon; Corning, NY) and allowed to adhere for 24–48 h prior to therapeutic introduction. Compounds were added and incubated on cells for 3 days in serum-containing media, followed by 2 h treatment with MTT (Sigma M5655) with the resulting formazan solubilized in DMSO. Absorbance was read at 540 nm by plate reader (uQuant, Bio-Tek Instruments). P-values were calculated from a one-way ANOVA.
# as §1, with “(blue). Arrow indicates transition from intravenous (IV) SAH5-EJ1 injections to intraperitoneal (IP) on day 66. **p < 0.01 (Control vs 0.5 µg/g and vs 5 µg/g). Data shown represent mean ± standard deviation. N = 8 for all groups. f Images of mouse tumors taken on Day 116. Arrowheads indicate tumor site. Representative images selected.” for “(blue).”
# [3] = tested on: Erlotinib-resistant lung adenocarcinoma PDX TM00784; experiment: Lung cancer PDX mouse model TM00784; type: in vivo
# Description: The following PDX mouse models were generated by Jackson Labs (Sacramento, CA): Breast TM01278; Grade 3 invasive ductal carcinoma, primary malignancy; EGFR inactivating R521K mutation; ERBB3 G1288A mutation in kinase domain with unknown effects on activity; increased EGFR/ERBB2/ERBB3. Lung TM00784; Grade 3 lung adenocarcinoma, primary malignancy; EGFR activating L858R mutation; increased EGFR, decreased ERBB2/ERBB3/ERBB4. All animals were maintained as outlined by University of Arizona Institutional Animal Care and Use Committee (IACUC) by the Experimental Mouse Shared Resource (EMSR).
# Fig. 3 SAH5-EJ1 inhibits growth and prolongs survival in PDX models of lung cancer. a, b Cell viability assays performed in A549 or EGFR T790M mutated H1975 lung adenocarcinoma cells over 3 days comparing treatment with Sapitinib (blue lines) to SAH5-EJ1 (red lines). Solid lines represent 24 h; dashed lines represent 72 h. Data shown represent mean ± percent difference of assays performed in quadruplicate. c Reduction in tumor burden in Erlotinib-resistant lung cancer PDX mouse model TM00784 with various doses of intravenous SAH5-EJ1. Control represents water as a vehicle control. *p < 0.05 (Control vs 1 µg/g); **p < 0.01 (Control vs 1 µg/g and vs 10 µg/g). d Kaplan–Meier curve of lung PDX mouse model treated with control (blue line) or either 1 or 10 µg/g SAH5-EJ1 (green line and red line, respectively). Data shown represent mean. N = 6 for all groups
smiles,measurement,setting,value
CC[C@H](C)[C@H](NC(=O)[C@H](Cc1c[nH]cn1)NC(=O)[C@H](CCCNC(=N)N)NC(=O)[C@H](CCCNC(=N)N)NC(=O)[C@H](CCCNC(=N)N)NC(=O)[C@H](CCSC)NC(=O)[C@H](Cc1ccccc1)NC(=O)[C@H](C)NC(=O)[C@H](CCCNC(=N)N)NC(=O)[C@H](C)NC(=O)[C@H](CCC(N)=O)NC(=O)[C@H](CCCNC(=N)N)NC(=O)[C@H](C)NC(=O)[C@H](C)NC(=O)[C@H](C)NC(=O)[C@H](CCCNC(=N)N)NC(=O)[C@H](C)NC(=O)[C@@H](N)Cc1ccc(O)cc1)C(=O)N[C@H](C(=O)N[C@@H](CCCNC(=N)N)C(=O)N[C@@H](CCCCN)C(=O)N[C@@H](CCCNC(=N)N)C(=O)N[C@]1(C)CCCCCCC=CCCC[C@@](C)(C(=O)N[C@@H](CCCNC(=N)N)C(=O)N[C@@H](CCC(=O)O)C(N)=O)NC(=O)[C@H](CCC(N)=O)NC(=O)[C@H](CC(C)C)NC(=O)[C@H](CC(C)C)NC(=O)[C@H](CCCNC(=N)N)NC(=O)[C@H](CCCNC(=N)N)NC(=O)[C@H](CC(C)C)NC1=O)C(C)C [SAH5-EJ1] (H-YARAAARQARAFMRRRHIVRKR[R8]LRRLLQ[S5]RE-NH2; staple 23-30),time of treatment until all animals showed no residual tumor burden,"[1]; 0.5 or 5 µg/g every 3 days, IV then IP",≤ 55 days
same,treated mice displaying tumor regrowth,[1]; 0.5 or 5 µg/g groups together,9/16
same,treated mice remaining at the end of the study,"[1]; 0.5 or 5 µg/g, treatment up to 203 days",more than 40%
same,cell viability,[2],zero
same,survival relative to control-treated mice,[3]; 1 µg/g (low dose) IV,1.7 ×
same,decrease in average tumor burden,"[3]; 1 µg/g IV, N = 6",> 50%
same,toxicity in the model,[3]; 1 or 10 µg/g IV,no detected toxicity
